Inhibition and IC50 data for 22 compounds are collected here from patent US12234205B1, “Sulfonylhydrazide derivatives as anticancer agents” (KING SAUD UNIVERSITY, priority 2024, dated 2025).

For one assay, the target named is T1, hFAAH (Homo sapiens, UniProt O00519).
T1 construct: purchased Cayman Chemicals 10005196
T1 sequence (O00519 1-579): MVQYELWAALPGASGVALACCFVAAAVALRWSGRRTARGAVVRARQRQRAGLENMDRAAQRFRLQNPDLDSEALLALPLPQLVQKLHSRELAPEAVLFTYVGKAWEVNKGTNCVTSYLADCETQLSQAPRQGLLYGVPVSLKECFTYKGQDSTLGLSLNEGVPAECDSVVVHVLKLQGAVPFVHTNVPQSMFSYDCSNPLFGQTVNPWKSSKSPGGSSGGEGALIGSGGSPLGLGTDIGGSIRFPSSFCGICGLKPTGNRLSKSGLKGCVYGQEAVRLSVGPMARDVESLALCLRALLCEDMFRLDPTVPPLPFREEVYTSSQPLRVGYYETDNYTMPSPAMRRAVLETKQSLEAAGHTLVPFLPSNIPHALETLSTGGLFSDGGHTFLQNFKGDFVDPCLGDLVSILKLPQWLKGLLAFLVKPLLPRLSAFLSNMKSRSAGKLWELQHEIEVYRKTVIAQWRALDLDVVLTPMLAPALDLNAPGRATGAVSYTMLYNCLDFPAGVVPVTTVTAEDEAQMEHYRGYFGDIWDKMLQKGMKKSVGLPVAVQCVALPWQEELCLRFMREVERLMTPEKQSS
Put plainly: Inhibition of FAAH activity (Cayman FAAH inhibitor screening assay kit, AMC-arachidonoyl amide hydrolysis, fluorescence). It counts as biochemical. As to conditions: 30 min preincubation; for inhibition at 10 µM: 10 μM compound, 37° C., triplicate; for IC50: only compounds with more than 50% inhibition at 10 μM. Here is the method: Inhibition of FAAH Activity
Assay was performed using kits (#10005196) purchased from Cayman Chemicals (Anne Arbor, MI, USA). Ibuprofen was acquired as a generous gift from Tabuk Pharmaceuticals (Tabuk, SA). Doxorubicin was purchased from Sigma (St. Luis, MI, USA). Assay was performed using the FAAH inhibitor screening assay kit from Cayman Chemicals according to the manufacturer's protocol. Release of the fluorescent product, 7-amino-4-methylcoumarin (AMC), from the hydrolysis of AMC-arachidonoyl amide, mediated by FAAH at 37° C., was recorded using a plate reader with an excitation filter of 340-360 nm and an emission filter of 450-465 nm. Inhibitors were preincubated for 30 min at indicated concentrations with the enzyme prior to the addition of substrate to initiate the reaction. Change in fluorescence with time was taken as enzyme activity and the extent of inhibition was calculated from the initial rates. Final DMSO concentration was kept at 2% (v/v) in the assay. Each concentration was repeated three times (Triplicate) to conform to statistical accuracy. Percentage of inhibition at 10 μM was measured for all compounds. Compounds which were able to inhibit the enzyme activity more than 50% at 10 μM were considered eligible for IC50 calculations. For IC50, the inhibition assay was performed at 1.0, 0.1, 0.01, 0.001 and 0.0001 μM concentration of compound under assay. The hFAAH inhibition was calculated as compared to activity observed with vehicle. IC50 values were calculated using Prism v.7.02 for each column separately (singlet concentration). The compound's IC50 was calculated using InStat v.3 software (GraphPad Software, San Diego, CA) which was also used for calculation of standard error of means (SEM). Referring to FIG. 1, inhibition of hFAAH by compound 10 is shown.
(§1) IC50 is the concentration at which 50% of the cells were inhibited after treatment with a target compound. SEM is the standard error of means.

Another assay has as its system A549 NSCLC cell line. Put plainly: Inhibition of A549 NSCLC cell line (sulforhodamine B assay, 72 h). It counts as cell-based. As to conditions: Homo sapiens, SRB assay, 72 hours exposure. The procedure:
as §1
Inhibition of A549 NSCLS (Non-Small Cells Lung Cancer) Cell Line
A549 cell lines were obtained from the National Cancer Institute (Cairo, Egypt) and maintained in Roswell Park Memorial Institute medium (RPMI1640) (Invitrogen, Carlsbad, CA, USA) supplemented with […] of streptomycin, 100 units/mL of penicillin and 10% of heat-inactivated fetal bovine serum (Invitrogen) in a humidified, 5% (v/v) CO2 atmosphere at 37° C. The sulforhodamine B (SRB) assays were performed according to Skehan et al 20, 21. Briefly, exponentially growing cells were trypsinized, counted and seeded at the appropriate densities (5000 cells/100 μL/well) into 96-well microtiter plates. Cells were incubated in a humidified atmosphere at 37° C. for 24 h. Then, the cells were exposed to different compounds at the desired concentrations, (0.01, 0.03, 0.1, 0.3, 1, 3, 10, 30 and 100 μM) or to 1% dimethyl sulfoxide (DMSO) for 72 hours. At the end of the treatment period, the media were removed, and the cells were fixed with 10% trichloroacetic acid at 4° C. for 1 h. The cells then were washed with tap water four times and incubated with SRB 0.4% for 30 min. Excess dye was removed by washing repeatedly with 1% (vol/vol) acetic acid. The protein-bound dye was dissolved in 10 mM Tris base solution for OD determination at 510 nm using a SpectraMax plus Microplate Reader (Molecular Devices, CA). Cell viability was expressed relative to the untreated control cells. Statistical analyses were performed using legally licensed GraphPad Prism™ and Instat™ software (GraphPad Inc., La Jolla, CA, USA).
For orientation: The SRB assay estimates cell density from bound dye.

One may read the inhibition as the relative decrease from the control value, in per cent. In general, IC50 refers to the concentration that gives 50% inhibition. The low end stands for greater potency in that assay, the high end for weaker potency in that assay. For the compound `CC(C)Cc1ccc(C(C)C(=O)NNS(=O)(=O)c2c(C(C)C)cc(C(C)C)cc2C(C)C)cc1` (stereo not drawn) [Compound 5, N′-(2-(4-isobutylphenyl)propanoyl)-2,4, 6 triisopropyl benzene sulfonohydrazide], at 10 µM the inhibition at hFAAH was 8.85%. Besides, the IC50 in the assay with A549 NSCLC cell line was 73 µM.

On hFAAH, `CC(=O)c1ccc(S(=O)(=O)NNC(=O)C(C)c2ccc(CC(C)C)cc2)cc1` (stereo not drawn) [Compound 1, 4-acetyl-N′-(2-(4-isobutylphenyl)propanoyl)benzenesulfonohydrazide] had an inhibition at 10 µM of 33.6%. For the same compound, the IC50 with A549 NSCLC cell line is above 100 µM.

As for `CC(C)Cc1ccc(C(C)C(=O)NNS(=O)(=O)c2cccs2)cc1` (stereo not drawn) [Compound 15, N′-(2-(4-isobutylphenyl)propanoyl)thiophene-2-sulfonohydrazide], at hFAAH, testing at 10 µM gave an inhibition of 86.5% and half-maximal inhibition (IC50) required 0.672 µM. Further, the 50% inhibitory concentration (IC50) in the assay on A549 NSCLC cell line was above 100 µM.

On hFAAH, `CC(C)Cc1ccc(C(C)C(=O)NNS(=O)(=O)c2ccc(-c3ccccc3)cc2)cc1` (stereo not drawn) [Compound 10, N′-(2-(4-isobutylphenyl)propanoyl)-[1, 1′-biphenyl]-4-sulfonohydrazide] returned an inhibition at 10 µM of 98.1% and a 50% inhibitory concentration (IC50) of 0.0056 µM. For the same compound, the IC50 in the assay on A549 NSCLC cell line was determined as 0.291 µM.

Turning to `Cc1ccc(S(=O)(=O)NNC(=O)C(C)c2ccc(CC(C)C)cc2)cc1` (stereo not drawn) [Compound 2, N′-(2-(4-isobutylphenyl)propanoyl)-4-methylbenzene sulfonohydrazide], testing at 10 µM at hFAAH gave an inhibition of 63.5%. The half-inhibitory concentration (IC50) is 1.46 µM at hFAAH and above 100 µM with A549 NSCLC cell line.

On to `COc1ccc(S(=O)(=O)NNC(=O)C(C)c2ccc(CC(C)C)cc2)cc1OC` (stereo not drawn) [Compound 14, N′-(2-(4-isobutylphenyl)propanoyl)-3,4-dimethoxybenzene sulfonohydrazide], for which testing at 10 µM at hFAAH gave an inhibition of 23.8%. In the assay on A549 NSCLC cell line, this compound returned an IC50 above 100 µM.

At hFAAH, `CC(C)Cc1ccc(C(C)C(=O)NNS(=O)(=O)Cc2ccccc2)cc1` (stereo not drawn) [Compound 20, N′-(2-(4-isobutylphenyl)propanoyl)-1-phenylmethanesulfonohydrazide] displayed an inhibition at 10 µM of 44.2%. The compound also displayed an IC50 in the assay on A549 NSCLC cell line above 100 µM.

As for `COc1ccc(-c2ccc(S(=O)(=O)NNC(=O)C(C)c3ccc(CC(C)C)cc3)cc2)cc1` (stereo not drawn) [Compound 12, N′-(2-(4-isobutylphenyl)propanoyl)-4′-methoxy-[1, 1′-biphenyl]-4sulfonohydrazide], on hFAAH, the inhibition at 10 µM is 99% and it took 0.141 µM to reach half-maximal inhibition (IC50). Moreover, the half-maximal inhibitory concentration (IC50) with A549 NSCLC cell line amounted to 11.7 µM.

Consider `Cc1ccc(-c2ccc(S(=O)(=O)NNC(=O)C(C)c3ccc(CC(C)C)cc3)cc2)cc1` (stereo not drawn) [Compound 11, N′-(2-(4-isobutylphenyl)propanoyl)-4′-methyl-[1, 1′-biphenyl]-4-sulfonohydrazide], for which testing at 10 µM at hFAAH gave an inhibition of 95.3%. The IC50 worked out at 0.072 µM against hFAAH and 16 µM in the assay with A549 NSCLC cell line.

Turning to `CC(C)Cc1ccc(C(C)C(=O)NNS(=O)(=O)c2cccnc2)cc1` (stereo not drawn) [Compound 18, N′-(2-(4-isobutylphenyl)propanoyl)pyridine-3-sulfonohydrazide], the inhibition at 10 µM against hFAAH is 58.6%. Moreover, the IC50 is 4.01 µM on hFAAH and above 100 µM with A549 NSCLC cell line.

`CC(C)Cc1ccc(C(C)C(=O)NNS(=O)(=O)C(Br)c2ccccc2)cc1` (stereo not drawn) [Compound 6, 1-Bromo-N′-(2-(4-isobutylphenyl)propanoyl)-1-phenylmethane sulfonohydrazide]: the inhibition at 10 µM against hFAAH turned out to be 20.6%. In the assay with A549 NSCLC cell line, this compound returned a concentration for half-maximal inhibition (IC50) above 100 µM.

As to `CC(C)Cc1ccc(C(C)C(=O)NNS(=O)(=O)c2ccc(C(F)(F)F)cc2)cc1` (stereo not drawn) [Compound 8, N′-(2-(4-isobutylphenyl)propanoyl)-4-(trifluoromethyl) benzene sulfonohydrazide], the inhibition at 10 µM at hFAAH came to 74%. The concentration for half-maximal inhibition (IC50) against hFAAH was found to be 1.2 µM; in the assay on A549 NSCLC cell line it was 40.1 µM.

Turning to `Cc1ccc(S(=O)(=O)NNC(=O)C(C)c2ccc(CC(C)C)cc2)s1` (stereo not drawn) [Compound 17, N′-(2-(4-isobutylphenyl)propanoyl)-5-methylthiophene-2-sulfonohydrazide], at hFAAH, the inhibition at 10 µM was found to be 7.44%. Further, in the assay with A549 NSCLC cell line, the IC50 was above 100 µM.

The compound `CC(C)Cc1ccc(C(C)C(=O)NNS(=O)(=O)c2ccc(Br)cc2)cc1` (stereo not drawn) [Compound 13, 4-Bromo-N′-(2-(4-isobutylphenyl)propanoyl)benzenesulfonohydrazide] showed an inhibition at 10 µM against hFAAH of 48.7%. In the assay on A549 NSCLC cell line, this compound displayed a half-inhibitory concentration (IC50) above 100 µM.

For the compound `COc1cccc2c1C(=O)c1c(O)c3c(c(O)c1C2=O)C[C@@](O)(C(=O)CO)C[C@@H]3O[C@H]1C[C@H](N)[C@H](O)[C@H](C)O1` [Doxorubicin, reference compound], the IC50 in the assay with A549 NSCLC cell line is 2.28 µM.

On hFAAH, `CC(C)Cc1ccc(C(C)C(=O)O)cc1` (stereo not drawn) [Ibuprofen, reference compound] gave an inhibition at 10 µM of 10%.

With `CC(C)Cc1ccc(C(C)C(=O)NNS(=O)(=O)c2ccccc2[N+](=O)[O-])cc1` (stereo not drawn) [Compound 3, N′-(2-(4-isobutylphenyl)propanoyl)-2-nitrobenzenesulfonohydrazide], testing at 10 µM against hFAAH gave an inhibition of 45.5%. 55.6 µM corresponded to half-maximal inhibition with A549 NSCLC cell line (IC50).

In the case of `CC(C)Cc1ccc(C(C)C(=O)NNS(=O)(=O)c2ccc(C(F)(F)F)nc2)cc1` (stereo not drawn) [Compound 19, N′-(2-(4-isobutylphenyl)propanoyl)-6-(trifluoromethyl)pyridine-3sulfonohydrazide], on hFAAH, at 10 µM the inhibition was 40.5%. The half-inhibitory concentration (IC50) with A549 NSCLC cell line is above 100 µM.

In turn, `CC(C)Cc1ccc(C(C)C(=O)NNS(=O)(=O)c2ccccc2)cc1` (stereo not drawn) [Compound 9, N′-(2-(4-isobutylphenyl)propanoyl) benzenesulfonohydrazide] registered an inhibition at 10 µM at hFAAH of 99.9%. Moreover, the IC50 at hFAAH worked out at 0.144 µM; with A549 NSCLC cell line, 46.4 µM.

At hFAAH, `CC(C)Cc1ccc(C(C)C(=O)NNS(=O)(=O)c2cccc(C(F)(F)F)c2)cc1` (stereo not drawn) [Compound 7, N′-(2-(4-isobutylphenyl)propanoyl)-3-(trifluoromethyl) benzene sulfonohydrazide] registered an inhibition at 10 µM of 36.1%. For the same compound, in the assay with A549 NSCLC cell line, the half-inhibitory concentration (IC50) is above 100 µM.

As for `CC(C)Cc1ccc(C(C)C(=O)NNS(=O)(=O)c2ccc3ccccc3c2)cc1` (stereo not drawn) [Compound 4, N′-(2-(4-isobutylphenyl)propanoyl)naphthalene-2-sulfonohydrazide], on hFAAH, the inhibition at 10 µM came out at 87.8% and the IC50 was determined as 0.179 µM. This compound showed a 50% inhibitory concentration (IC50) in the assay with A549 NSCLC cell line of 53 µM.

With `CC(C)Cc1ccc(C(C)C(=O)NNS(=O)(=O)c2ccc(Br)s2)cc1` (stereo not drawn) [Compound 16, 5-Bromo-N′-(2-(4-isobutylphenyl)propanoyl) thiophene-2-sulfonohydrazide], testing at 10 µM on hFAAH gave an inhibition of 28.4%. In the assay on A549 NSCLC cell line, the IC50 is above 100 µM.
